# Legend:
# Type in all cases: in vivo
# weedy Glycine max = assay: Greenhouse post-emergence herbicidal efficacy on weedy Glycine max
# Procedure: (§1) Evaluation of Post-Emergence Herbicidal Activity of Combinations Under Field Conditions
# (§2) Methodology: Greenhouse trials were carried out to evaluate the efficacy of the combination of L-glufosinate and the other herbicides on weeds such as Glycine max, Spermacoce verticilata, Eleusine indica, Brachiaria decumbens. The soil used was sandy clay loam—Sand: 68.0%; Silt: 8.0%; Clay: 24.0%. All treatments were conducted in 4 replications per treatment with a spray volume of […].
# (§3) The expected efficacy of a combination of L-glufosinate and the other herbicides was calculated using the well-established Colby method. Any difference between the observed and “expected” efficacy could be attributed to synergy between the two compounds.
# (§4) In the Colby method, the expected (or predicted) response of a combination of herbicides is calculated by taking the product of the observed response for each individual component of the combination when applied alone, divided by 100, and subtracting this value from the sum of the observed response for each component when applied alone. An unexpected enhancement in efficacy of the combination is then determined by comparing the observed response of the combination to the expected (or predicted) response as calculated from the observed response of each individual component alone. If the observed response of the combination is greater than the expected (or predicted) response, or stated conversely, if the difference between the observed and expected response is greater than zero, then the combination is said to be synergistic or unexpectedly effective (Colby, S. R., Weeds, 1967(15), p. 20-22). The Colby method requires only a single dose of each herbicide applied alone and the mixture of both doses. The formula used to calculate the expected efficacy (EE) which was compared with the observed efficacy (OE) to determine the efficacy of the present invention is explained hereinbelow:
# (§5) The expected efficacy for a combination of two active ingredients is as follows:
# (§6) The expected efficacy for a combination of three active ingredients is as follows:
# (§7) Where, • A=Observed efficacy of active ingredient A at the same concentration as used in the mixture. • B=Observed efficacy of the active ingredient B at the same concentration as used in the mixture. • C=Observed efficacy of the active ingredient C at the same concentration as used in the mixture.
# Eleusine indica = assay: Greenhouse post-emergence herbicidal efficacy on Eleusine indica
# Procedure: as §1, §2, §3, §4, §5, §6, §7
# Spermacoce latifolia = assay: Greenhouse post-emergence herbicidal efficacy on Spermacoce latifolia; details: L-glufosinate 150, imazethapyr 75, carfentrazone 7.5 g a.i./h
# Procedure: as §1, §2, §3, §4, §5, §6, §7
# Brachiaria decumbens = assay: Greenhouse post-emergence herbicidal efficacy on Brachiaria decumbens
# Procedure: as §1, §2, §3, §4, §5, §6, §7
# Borreria verticillata = assay: Greenhouse post-emergence herbicidal efficacy on Borreria verticillata; details: L-glufosinate 150, imazapic and imazapyr 31.5 + 10.5 g a.i./h
# Procedure: as §1, §2, §3, §4, §5, §6, §7
# Amaranthus viridus = assay: Greenhouse post-emergence herbicidal efficacy on Amaranthus viridus; details: Table 11, 3 DAA, L-glufosinate 150, imazapic and imazapyr 31.5 + 10.5 g a.i./h
# Procedure: as §1, §2, §3
# In the Colby method, the expected (or predicted) response of a combination of herbicides is calculated by taking the product of the observed response for each individual component of the combination when applied alone, divided by 100, and subtracting this value from the sum of the observed response for each component when applied alone. An unexpected enhancement in efficacy of the combination is then determined by comparing the observed response of the combination to the expected (or predicted) response as calculated from the observed response of each individual component alone. […]
# [1] = Table 9, 21 DAA, L-glufosinate 150, saflufenacil 30, 2,4 D 228 g a.i./h
# [2] = Table 9, 28 DAA, L-glufosinate 150, saflufenacil 30, 2,4 D 228 g a.i./h
# [3] = Table 9, 35 DAA, L-glufosinate 150, saflufenacil 30, 2,4 D 228 g a.i./h
# [4] = Table 3, 14 DAA, L-glufosinate 150, imazethapyr 75, carfentrazone 7.5 g a.i./h
# [5] = Table 3, 21 DAA, L-glufosinate 150, imazethapyr 75, carfentrazone 7.5 g a.i./h
# [6] = Table 3, 28 DAA, L-glufosinate 150, imazethapyr 75, carfentrazone 7.5 g a.i./h
# [7] = Table 3, 35 DAA, L-glufosinate 150, imazethapyr 75, carfentrazone 7.5 g a.i./h
# [8] = Table 4, 3 DAA, L-glufosinate 150, imazethapyr 75, carfentrazone 7.5 g a.i./h
# [9] = Table 4, 7 DAA, L-glufosinate 150, imazethapyr 75, carfentrazone 7.5 g a.i./h
# [10] = Table 4, 14 DAA, L-glufosinate 150, imazethapyr 75, carfentrazone 7.5 g a.i./h
# [11] = Table 4, 21 DAA, L-glufosinate 150, imazethapyr 75, carfentrazone 7.5 g a.i./h
# [12] = Table 4, 28 DAA, L-glufosinate 150, imazethapyr 75, carfentrazone 7.5 g a.i./h
# [13] = Table 4, 35 DAA, L-glufosinate 150, imazethapyr 75, carfentrazone 7.5 g a.i./h
# [14] = Table 6, 7 DAA, L-glufosinate 150, imazethapyr 75, carfentrazone 7.5 g a.i./h
# [15] = Table 6, 14 DAA, L-glufosinate 150, imazethapyr 75, carfentrazone 7.5 g a.i./h
# [16] = Table 6, 21 DAA, L-glufosinate 150, imazethapyr 75, carfentrazone 7.5 g a.i./h
# [17] = Table 6, 28 DAA, L-glufosinate 150, imazethapyr 75, carfentrazone 7.5 g a.i./h
# [18] = Table 6, 35 DAA, L-glufosinate 150, imazethapyr 75, carfentrazone 7.5 g a.i./h
# [19] = Table 7, 7 DAA, L-glufosinate 150, saflufenacil 30, triclopyr 228 g a.i./h
# [20] = Table 8, 7 DAA (head; title says 3 days), L-glufosinate 150, saflufenacil 30, triclopyr 228 g a.i./h
Compound,Control % (weedy Glycine max; [1]) [%],Control % (weedy Glycine max; [2]) [%],Control % (weedy Glycine max; [3]) [%],Control % (weedy Glycine max; [4]) [%],Control % (weedy Glycine max; [5]) [%],Control % (weedy Glycine max; [6]) [%],Control % (weedy Glycine max; [7]) [%],Control % (Eleusine indica; [8]) [%],Control % (Eleusine indica; [9]) [%],Control % (Eleusine indica; [10]) [%],Control % (Eleusine indica; [11]) [%],Control % (Eleusine indica; [12]) [%],Control % (Eleusine indica; [13]) [%],"Control % (Spermacoce latifolia; Table 5, 7 DAA) [%]","Control % (Spermacoce latifolia; Table 5, 14 DAA) [%]","Control % (Spermacoce latifolia; Table 5, 21 DAA) [%]","Control % (Spermacoce latifolia; Table 5, 28 DAA) [%]","Control % (Spermacoce latifolia; Table 5, 35 DAA) [%]",Control % (Brachiaria decumbens; [14]) [%],Control % (Brachiaria decumbens; [15]) [%],other results
"O=C(O)COc1ccc(Cl)cc1Cl [2,4 D, 2,4-D]",49.3,43.8,41,–,–,–,–,–,–,–,–,–,–,–,–,–,–,–,–,–,–
"Cc1nn(-c2cc(CC(Cl)C(=O)O)c(Cl)cc2F)c(=O)n1C(F)F (stereo not shown) [Carfentrazone, carfentrazone]",–,–,–,50.3,44.3,44.3,39.3,8.7,14,12.3,11,7.7,0,58.3,64.3,64.3,64.3,63.3,14,16.7,Control % (Brachiaria decumbens; [16]): 15%; Control % (Brachiaria decumbens; [17]): 5%; Control % (Brachiaria decumbens; [18]): 0%
"CCc1cnc(C2=NC(C)(C(C)C)C(=O)N2)c(C(=O)O)c1 (stereo not shown) [Imazethapyr, imazethapyr]",–,–,–,10,20.0,20.0,15.0,3.7,8.3,12,12.7,12.7,10,13.3,30,36.7,30,26.7,10,10,Control % (Brachiaria decumbens; [16]): 15%; Control % (Brachiaria decumbens; [17]): 10%; Control % (Brachiaria decumbens; [18]): 5%
"CP(=O)(O)CC[C@H](N)C(=O)O [L-glufosinate, (S)-2-amino-4-(hydroxy(methyl)phosphonyl)butanoic acid]",57.5,50.6,47.5,60,63.3,63.3,52.7,15,43.3,41.3,37.3,28.3,25.3,35,56.7,56.7,58.3,58.3,46,54.3,"Control % (weedy Glycine max; [19]): 71.9%; Control % (Borreria verticillata; Table 10, 3 DAA): 50%; Control % (Borreria verticillata; Table 10, 7 DAA): 80%; Control % (Borreria verticillata; Table 10, 14 DAA): 95%; Control % (Borreria verticillata; Table 10, 21 DAA): 90%; Control % (Borreria verticillata; Table 10, 28 DAA): 90%; Control % (Borreria verticillata; Table 10, 35 DAA): 85%; Control % (Eleusine indica; Table 12, 3 DAA, L-glufosinate 150, imazapic and imazapyr 31.5 + 10.5 g a.i./h): 40%; Control % (Eleusine indica; Table 12, 7 DAA, L-glufosinate 150, imazapic and imazapyr 31.5 + 10.5 g a.i./h): 50%; Control % (Eleusine indica; Table 12, 14 DAA, L-glufosinate 150, imazapic and imazapyr 31.5 + 10.5 g a.i./h): 40%; Control % (Amaranthus viridus): 50%; Control % (Brachiaria decumbens; [16]): 53.3%; Control % (Brachiaria decumbens; [17]): 48.3%; Control % (Brachiaria decumbens; [18]): 42%; Control % (Brachiaria decumbens; [20]): 66.2%"
"CC(C)N(C)S(=O)(=O)NC(=O)c1cc(-n2c(=O)cc(C(F)(F)F)n(C)c2=O)c(F)cc1Cl [Saflufenacil, saflufenacil]",63.2,52.5,50.7,–,–,–,–,–,–,–,–,–,–,–,–,–,–,–,–,–,Control % (weedy Glycine max; [19]): 75.4%; Control % (Brachiaria decumbens; [20]): 30%
"O=C(O)COc1nc(Cl)c(Cl)cc1Cl [Triclopyr, triclopyr]",–,–,–,–,–,–,–,–,–,–,–,–,–,–,–,–,–,–,–,–,Control % (weedy Glycine max; [19]): 67.9%; Control % (Brachiaria decumbens; [20]): 0%
